Results on 14 compounds are retold here after PubChem BioAssay (NCI).

SMILES strings stand for the structures. “And” between values parts separate entries of the source, which are not always exact repeats. Identical values can stand only once.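 How tested: cells in 96-well plates exposed to compound for 48 hours at five concentrations. GI50 is the concentration that inhibits growth by half. TGI marks complete inhibition of growth.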

Test systems include M14 melanoma; MOLT-4 leukemia; SF-295 CNS; DU-145 prostate; RPMI-8226 leukemia; HL-60(TB) leukemia; SK-OV-3 ovarian; LOX IMVI melanoma; OVCAR-5 ovarian; HT29 colon.
Test in all cases: DTP human tumour cell line panel, 48 h

By TGI is commonly meant the concentration at which net growth stops. As to `C[C@@H]1C(=O)O[C@H]1[C@H](O)CO`, the TGI in the assay with M14 melanoma, with MOLT-4 leukemia, in the assay with SF-295 CNS, in the assay with DU-145 prostate, in the assay on RPMI-8226 leukemia and in the assay with HL-60(TB) leukemia was over 100 µM throughout. Moreover, the TGI with SK-OV-3 ovarian, with LOX IMVI melanoma and in the assay on OVCAR-5 ovarian was over 100 µM in each case.
Take `CCCCCCCCCCCCCC1=C(O)C(=O)C(CC2=C(O)C(=O)C(CCCCCCCCCCCCC)=C(O)C2=O)=C(O)C1=O`: the TGI in the assay with M14 melanoma, with SF-295 CNS, with DU-145 prostate, with HL-60(TB) leukemia, with SK-OV-3 ovarian and in the assay with LOX IMVI melanoma was over 100 µM in each case. Further, the TGI with HT29 colon and in the assay with OVCAR-5 ovarian was over 100 µM each time.
As usually defined, the GI50 is the concentration that inhibits growth by half. Consider `CC[C@@]1(O)C(=O)OCc2c1cc1n(c2=O)Cc2cc3ccccc3nc2-1`, for which the TGI worked out at 1.8 µM in the assay on M14 melanoma; 0.0445 µM with MOLT-4 leukemia; 0.0698 µM in the assay on SF-295 CNS; 0.0605 µM in the assay with DU-145 prostate; 0.765 µM in the assay on RPMI-8226 leukemia; 0.0527 µM in the assay with HL-60(TB) leukemia. Besides, the TGI came to 1.42 µM in the assay with SK-OV-3 ovarian, 0.64 µM in the assay with LOX IMVI melanoma, 0.839 µM in the assay with HT29 colon and 1.04 µM with OVCAR-5 ovarian. Also, the GI50 with SK-OV-3 ovarian was 0.0241 µM; in the assay on OVCAR-5 ovarian, 0.111 µM.
Turning to `Nc1[nH]c(=S)nc2nc3c(c(-c4ccccc4)c12)CCCC3`, the TGI in the assay with M14 melanoma, with MOLT-4 leukemia, with SF-295 CNS, with DU-145 prostate, in the assay with RPMI-8226 leukemia and with HL-60(TB) leukemia was over 100 µM each time. Besides, the TGI with SK-OV-3 ovarian, in the assay on LOX IMVI melanoma, in the assay with HT29 colon and with OVCAR-5 ovarian was over 100 µM throughout.
In the case of `COc1ccccc1CC(C)N` (centres undefined), the total growth inhibition concentration (TGI) in the assay on M14 melanoma, in the assay on SF-295 CNS, with RPMI-8226 leukemia, with HL-60(TB) leukemia, in the assay with SK-OV-3 ovarian and in the assay with LOX IMVI melanoma was over 100 µM in each case. For the same compound, the TGI with HT29 colon and in the assay with OVCAR-5 ovarian was over 100 µM in each case.
As to `CC(C)CCCC(C)[C@H]1CC[C@H]2n3c(nc4ccccc43)CCC[C@]12C` (some centres undefined), the TGI is 35.4 µM in the assay on M14 melanoma; 35.9 µM in the assay on MOLT-4 leukemia; 30.7 µM in the assay on SF-295 CNS; 58.5 µM in the assay with DU-145 prostate; 33.9 µM with RPMI-8226 leukemia; 32.3 µM with HL-60(TB) leukemia. The TGI with SK-OV-3 ovarian is 30.9 µM; with LOX IMVI melanoma it was over 100 µM; with HT29 colon, 26.4 µM.
Turning to `O=C(NC(Cc1ccc(Br)cc1)C(=O)O)c1ccc(I)cc1` (centres undefined), the TGI with MOLT-4 leukemia, with SF-295 CNS, with RPMI-8226 leukemia, in the assay with HL-60(TB) leukemia, with SK-OV-3 ovarian and in the assay on LOX IMVI melanoma was over 100 µM each time. The TGI in the assay with HT29 colon and in the assay on OVCAR-5 ovarian was over 100 µM in each case.
With `CCN(CC)CC[n+]1ccc2c(C)c3[nH]c4ccc(O)cc4c3c(C)c2c1`, the TGI in the assay on M14 melanoma was 34.9 µM; with MOLT-4 leukemia, 11 µM and 12.4 µM; in the assay on SF-295 CNS it was 30.1 µM and 28.4 µM; in the assay on DU-145 prostate it was 14.2 µM; with RPMI-8226 leukemia it was 43.4 µM and 35.6 µM; in the assay with HL-60(TB) leukemia, 33.2 µM and 33.1 µM. Besides, the TGI with SK-OV-3 ovarian was 66.9 µM and 58.4 µM; in the assay on LOX IMVI melanoma, 44 µM and 58.3 µM; with HT29 colon, 41.1 µM and > 67.5 µM; in the assay on OVCAR-5 ovarian it was 72.6 µM and 73.8 µM. The GI50 in the assay with MOLT-4 leukemia was 0.181 µM; in the assay on RPMI-8226 leukemia it was 3.41 µM; in the assay with SK-OV-3 ovarian, 5.94 µM; in the assay with LOX IMVI melanoma, 6.73 µM; in the assay with HT29 colon it was 12.6 µM.
Regarding `CSc1nc(CO)c(CO)n1C`, the TGI in the assay with MOLT-4 leukemia, in the assay on SF-295 CNS, in the assay on RPMI-8226 leukemia, in the assay on HL-60(TB) leukemia, in the assay on SK-OV-3 ovarian and with LOX IMVI melanoma was over 100 µM each time. In addition, the TGI with HT29 colon and with OVCAR-5 ovarian was over 100 µM each time.
As for `CN(C)CCNC(=O)c1cc(Cl)cc2cc3ccccc3nc12`, the TGI was 2.85 µM with SF-295 CNS; 8.29 µM with RPMI-8226 leukemia; 2.62 µM in the assay with HL-60(TB) leukemia; 9.27 µM in the assay on SK-OV-3 ovarian; 2.6 µM in the assay with LOX IMVI melanoma; 2.41 µM with HT29 colon. The compound also displayed a TGI in the assay with OVCAR-5 ovarian of 1.97 µM.
On to `CCc1n[nH]c(=O)n1/N=C(\C)c1ccc([N+](=O)[O-])cc1`, for which the concentration for total growth inhibition (TGI) with M14 melanoma, in the assay on MOLT-4 leukemia, with SF-295 CNS, in the assay with DU-145 prostate, with RPMI-8226 leukemia and in the assay on HL-60(TB) leukemia was over 100 µM in each case. Besides, the concentration for total growth inhibition (TGI) in the assay on LOX IMVI melanoma, in the assay on HT29 colon and with OVCAR-5 ovarian was over 100 µM each time.
Consider `COc1cc(/C=C2\N=C(c3ccccc3)N(c3ccc(C(=O)c4ccccc4)cc3N3C(=O)/C(=C/c4ccc(O)c(OC)c4)N=C3c3ccccc3)C2=O)ccc1O`, for which the TGI is 25.1 µM in the assay with M14 melanoma; 15.3 µM in the assay with MOLT-4 leukemia; 28.8 µM with SF-295 CNS; 48.6 µM in the assay with DU-145 prostate; 94.3 µM in the assay with RPMI-8226 leukemia; 16 µM in the assay with HL-60(TB) leukemia. Further, the TGI turned out to be 45 µM in the assay with SK-OV-3 ovarian, 37.1 µM in the assay on LOX IMVI melanoma, 51.5 µM in the assay on HT29 colon and 95.5 µM in the assay with OVCAR-5 ovarian.
Turning to `OC[C@H]1NC[C@@H](O)[C@@H](O)[C@H]1O`, the TGI in the assay on M14 melanoma, in the assay with MOLT-4 leukemia, in the assay on SF-295 CNS, in the assay on RPMI-8226 leukemia, in the assay with SK-OV-3 ovarian and with LOX IMVI melanoma was over 100 µM in each case. The TGI in the assay with HT29 colon and in the assay with OVCAR-5 ovarian was over 100 µM throughout.
As for `Cc1[nH]c(=O)[nH]c(=O)c1/C=C/C(=O)NC(CO)CS(=O)CS(C)=O` (centres undefined), the TGI in the assay with MOLT-4 leukemia was 66.5 µM; in the assay on SF-295 CNS, 77.5 µM; in the assay with RPMI-8226 leukemia it was 183 µM; with HL-60(TB) leukemia it was 57.4 µM; in the assay on SK-OV-3 ovarian it was 169 µM; in the assay with LOX IMVI melanoma, 86.9 µM. Also, the TGI with HT29 colon was 515 µM; in the assay with OVCAR-5 ovarian, 483 µM.
